# In US20240050735A1, “SYSTEMS AND METHODS FOR TREATING AND INHIBITING WOUND INFECTIONS” (priority 2020, published 2024):
# Several values for one entry are separate records, joined by “and”; a condition that tells them apart may be missing. Equal values may be shown once. Where a name gives a salt, the structure may show the parent alone. Read-outs that look alike come from different tables or passages of the source.
# What was measured:
# [1] = format: in vitro ADME; conditions: for permeation coefficient (Pc): 1 mg mL^−1 VAN; for accumulated concentration in wound tissue: 1 mg mL^−1 VAN loaded
# Procedure: Investigations were also performed to determine the iontophoretic antibiotic delivery efficiency of the HIC-based biofilm treatment system 100 using high current intensities. These investigations included an ex vivo antibiotic delivery study using the same MRSA biofilm-infected porcine skin wound model as in the previous section. Vancomycin (VAN) was used here as a model drug, since it is the FDA-approved antibiotic and is the clinical gold standard for combating S. aureus infections.
# First the VAN delivery efficiency was tested at different current intensities (from 0 mA cm^−2 (passive diffusion) to 75 mA cm^−2) applied by the HIC-based biofilm treatment system 100 for 1 hour. The drug/buffer chamber 114 of the working device 104 was loaded with 1 mg mL^−1 VAN in this study. The anode side was used as the working device 104 because VAN required anodal iontophoresis. The accumulated concentration of VAN in biofilm infected skin wound was measured immediately after iontophoresis using high performance liquid chromatography (HPLC). […] When 75 mA cm^−2 was used, the VAN concentration in wound tissue increased to 4.5±0.52 mg g^−1. The VAN concentration in wound tissue after passive diffusion, 0.5 mA cm^−2, and 19 mA cm^−2 iontophoresis were also measured. However, they could not be distinguished from the background interference of the residual biofilm components, so no quantitative results were obtained (data not shown). Importantly, the VAN concentration delivered by 75 mA cm^−2 iontophoresis for 1 hour exceeded the minimal biofilm eradication concentration (MBEC) of VAN reported for MRSA biofilm, which was 4 mg g^−1. The ability to deliver a lethal antibiotic concentration into biofilm-infected wounds within a short period of time was critical for biofilm treatment as it would minimize the chance for bacteria to develop adaptive tolerance.
# The fetal pig skin samples (approximately 30×30 mm) were immersed in 10% (v/v) bleach for 5 minutes after hair removal. Then, skin samples were sterilized in 70% ethanol for 30 minutes. The surface of skin sample was further cleaned by 10% povidone-iodine and 70% isopropanol to prevent contamination. A 6-mm disposable biopsy punch was used to create an excisional wound. Samples were put into sterile 10-cm petri-dishes filled with sterile PBS (6 mL). The wound was then inoculated with 1×10^8 CFU mL^−1 MRSA bacteria solution (20 μL). The bacteria were allowed to grow in a 37° C. Heratherm™ compact microbiological incubator (ThermoFischer Scientific™, Waltham, Mass., USA) for 48 hours to form mature biofilms.
# To evaluate the antibiotic delivery efficacy of VAN by high-intensity current, biofilm infected fetal pig skin wound was used. The DAP test setup was same as that of VAN, except no PBS chamber 122 was used. Instead, the inner surface of the skin wound contacted directly to the hydrogel 120 of the counter device 106. To evaluate the effect of electrical current intensity on the drug delivery efficacy, different current intensities from 0 to 75 mA cm^−2 were applied. To evaluate the effect of loading concentration of antibiotics, different concentrations of VAN and DAP from 1 mg mL^−1 to 10 mg mL^−1 were used. Since VAN is […] and DAP is negatively charged under physiological environment, anode HIC-based device was placed facing biofilm for VAN iontophoresis, and cathode HIC-based device was placed facing biofilm for DAP iontophoresis. Samples were collected immediately after different treatments. The concentrations of antibiotics delivered into skin wound samples were measured by high-performance liquid chromatography (HPLC). The permeation coefficient (Pc, cm s^−1) was then calculated (Pc=J/C, where J is antibiotic delivery flux in tissue samples (μg (cm^2s)^−1, C is the loading concentration of antibiotic solution (μg m L^−1)). […]
# planktonic MRSA [2] = test: Time-killing test on planktonic MRSA in stationary phase; format: cell-based, Methicillin-resistant S. aureus (MRSA) USA300; conditions: 10 mg mL^−1 VAN, 4-day incubation
# Procedure: (§1) MRSA bacteria was cultured in LB media in a 37° C. water shaking bath overnight to reach the concentration of 1×10^8 CFU mL^−1. Then, they were diluted to 10^5 CFU mL^−1 in 96-well plates by adding different concentrations of VAN solutions. After incubation for 24 hours without shaking, MIC of VAN to inhibit MRSA growth was measured by a Biotek Synergy H1 hybrid multi-mode microplate reader (BioTek, Winooski, Vt., USA) at OD600. To evaluate the killing time of VAN to bacteria in stationary phase (1×10^8 CFU mL^−1), VAN powder was added to bacteria solution to obtain concentration of 1 mg mL^−1, 3 mg mL^−1, 5 mg mL^−1, and 10 mg mL^−1, respectively, while remaining MRSA concentration of 1×10^8 CFU mL^−1. After incubation in a 37° C. water bath for 1 day, 2 days, 3 days and 4 days, the CFU of MRSA cells was tested by the standard plate spread counting assay, respectively. The time-killing tests of DAP with different concentrations (0.1 mg mL^−1, 0.5 mg mL^−1, 1 mg mL^−1, and 5 mg mL^−1) on MRSA planktonic cells were also performed, with the incubation time up to 24 hours.
# planktonic MRSA [3] = test: Minimum inhibitory concentration (MIC) to planktonic MRSA; format: cell-based, Methicillin-resistant S. aureus (MRSA) USA300; conditions: Staphylococcus aureus; planktonic MRSA cells, 24 hours, OD600
# Procedure: Methicillin-resistant S. aureus (MRSA) USA300 strain was used in this study. The planktonic bacteria were cultured in LB medium. Vancomycin hydrochloride (Apexbio Technology LLC, Houston, Tex., USA) and daptomycin (Combi-Blocks, San Diago Calif., USA) were used to treat MRSA biofilm. The minimum inhibitory concentration (MIC) of vancomycin hydrochloride to planktonic MRSA cells was determined as 1.2 μg mL^−1 (see FIG. 17B), which was in consistent with the results reported previously.
# as §1, with “The time-killing tests of DAP with different concentrations (0.1 mg mL^−1, 0.5 mg mL^−1, 1 mg mL^−1, and 5 mg mL^−1) on MRSA planktonic cells were also performed, with the incubation time up to 24 hours.” left out
# S. aureus biofilms = conditions: cited from earlier work
# [4] = conventional transdermal iontophoresis 0.31 mA cm^−2; cited from earlier work
# MRSA biofilm = conditions: cited from earlier work
# C. difficle = conditions: cited from earlier work
# [5] = system: S. aureus persister cells; conditions: even at 100×MIC; cited from earlier work
# [6] = 0.3 mA cm^−2 for 4 hours; cited from earlier work
smiles,measurement,setting,value
"CN[C@H](CC(C)C)C(=O)N[C@H]1C(=O)N[C@@H](CC(N)=O)C(=O)N[C@H]2C(=O)N[C@H]3C(=O)N[C@H](C(=O)N[C@H](C(=O)O)c4cc(O)cc(O)c4-c4cc3ccc4O)[C@H](O)c3ccc(c(Cl)c3)Oc3cc2cc(c3O[C@@H]2O[C@H](CO)[C@@H](O)[C@H](O)[C@H]2O[C@H]2C[C@](C)(N)[C@H](O)[C@H](C)O2)Oc2ccc(cc2Cl)[C@H]1O [VAN, Vancomycin hydrochloride]",conventional Pc lower than Pc by 75 mA cm^−2 HIC iontophoresis,[1]; 0.31 mA cm^−2 conventional vs 75 mA cm^−2 HIC,980 times
same,permeation coefficient (Pc),"[1]; 38 mA cm^−2, 1 hour",112.0±20.97 ×10^−6 cm s^−1
same,accumulated concentration in wound tissue,"[1]; 38 mA cm^−2, 1 hour",2.5 ± 0.32 mg/g
same,permeation coefficient (Pc),"[1]; 75 mA cm^−2, 1 hour",216.5±18.96 ×10^−6 cm s^−1
same,accumulated concentration in wound tissue,"[1]; 75 mA cm^−2, 1 hour, hydrochloride",4.5 ± 0.52 mg/g and 4.5 mg/g
same,concentration in wound tissue,"[1]; 75 mA cm^−2, 1 hour, 5 mg mL^−1 VAN loaded",more than 16 mg g^−1
same,concentration in wound tissue,"[1]; 75 mA cm^−2, 1 hour, 10 mg mL^−1 VAN loaded",more than 16 mg g^−1
same,bacterial count after incubation (from 10^8 CFU g^−1),planktonic MRSA [2],10^6 CFU g^−1
same,MIC,planktonic MRSA [3],1.2 µg/mL
same,biofilm bacterial density reduction,S. aureus biofilms; 2 mA (0.17 mA cm^−2) for 24 hours with 32 μg mL^−1 vancomycin,1 log10 scale
same,antibacterial effect,S. aureus biofilms; vancomycin alone,no antibacterial effect
same,permeation coefficient (Pc),[4],2.21e+11 ×10⁻⁶ cm/s
same,minimal biofilm eradication concentration (MBEC),MRSA biofilm,4 mg/g
same,concentration at which antibacterial activity starts to decrease (paradoxical effect),C. difficle,64 ×MIC
same,killing of S. aureus persister cells,[5],not capable of killing
same,amount delivered into the epidermis by iontophoresis vs passive diffusion,[6],2.1 times
